The text below walks through data of US20210275543A1, “METHODS FOR THE TREATMENT OF MITOCHONDRIAL GENETIC DISEASES” (NSERM (INSTITUT NATIONAL DE LA SANTÉ ET DE LA RECHERCHE …, priority 2017, published 2021).

Experiment [1] concerns phosphorylated ribosomal protein S6 (mTORC1 signaling). Kind of experiment: Analysis of S6 phosphorylation by western blotting in primary dermal fibroblasts. In kind it is cell-based, human. Particulars: for S6 phosphorylation (phosphorylated ribosomal protein S6 vs total rpS6, GAPDH): 48 hours of treatment, 5 μmol/L BYL719. As to the method: (§1) Punch skin biopsies were collected using standard methods.
(§2) To generate dermal fibroblast cultures, biopsies were minced and incubated at room temperature in 0.05% trypsin-EDTA (ThermoFisher 25300054) solution for 30 min with gentle shaking. Cells were collected by centrifuging at 700 g for 10 min, re-suspended in cell culture media containing 25% FBS, and plated onto 24 well plates to establish lines. Fibroblast cultures were grown and maintained in 1×MEM (Corning 10-010-CV) supplemented with 25% FBS and penicillin/streptomycin (Corning 30-001-CI) to a final concentration of 100 IU penicillin and 500 μg/mL streptomycin.
Cells at similar population doubling (PD-10+/−2) were plated 1:4 from confluent cultures and allowed to grow until ˜80% confluent. Media was replaced with media containing 5 μmol/L BYL719 (Chem Express) in DMSO or equal volume DMSO for 48 hours. Cultures were rinsed with 1×PBS, treated for 10 min with 0.05% Trypsin, collected by centrifugation at 4° C., and pellets were flash frozen on dry ice. Protein lysates were collected by directly adding 1×RIPA buffer (Pierce 89900) containing protease and phosphatase inhibitors (Pierce PI78441) to cell pellets, sonicating in 10 one-second bursts, on ice, with an XL-2000 QSonica at maximum output, and centrifuging to remove cell debris. Protein concentration was determined by BCA assay (Pierce PI23228), equal protein run on 4-12% bis-tris 26 well NuPage midigels (Fisher WG1403), and transferred to nitrocellulose blots (Fisher IB23001). Blots were blocked in LICOR Odyssey blocking buffer (LICOR 427-40100), probed with primary antibodies anti-pS6, anti-S6, and anti-GAPDH (Cell Signaling 4858P, 2217S, and 2118S, respectively) followed by secondary antibody IRDye800 donkey anti-rabbit (LICOR 925-32213) and imaged using LICOR Odyssey Clx scanning imager as previously described^9. Data quantified using NIH ImageJ^11.

Experiment [2] concerns primary dermal fibroblasts from patients with mitochondrial disorders and controls. Kind of experiment: Analysis of mitochondrial membrane potential and morphology (TMRE / 10-NAO staining, confocal microscopy and flow cytometry). In kind it is cell-based, human. As to the method:
as §1, §2
Cells at similar population doubling (PD-10+/−2) were plated 1:4 from confluent cultures onto coverglass chamberslides and allowed to grow until ˜80% confluent. Media was replaced and supplemented with […] BYL719 (Chem Express) in DMSO (Fisher BP321-1), or equal volume DMSO, for 48 hours. Cells were stained for 15 min in media with 100 nM tetramethylrhodamine ethyl ester (TMRE, Fisher BDB564696) and 5 μg/mL Hoechst 33342 (Biotium 89139-126) and imaged on a Leica SP5 confocal microscope. Samples were treated and imaged in one session using identical imaging parameters. Flow cytometry analysis was performed by staining cells with only TMRE or 10-N-nonyl acridine orange (10-NAO), dissociating with trypsin-EDTA containing dye for 10 min at room temperature, collecting cells by centrifugation, resuspension in cold PBS, and analysis on a BD Canto II flow cytometer using 488 nm excitation with 585/42 BP and 530/30 BP filters for TMRE and 10-NAO, respectively. A single gate was set to cells using forward and side scatter and all settings unchanged throughout data collection. 10,000 or more events were collected for every sample.

A further experiment concerns Ndufs4−/− mice. Kind of experiment: PIK3CA inhibition in Ndufs4 knockout mouse model of Leigh syndrome (survival). In kind it is in vivo. The note with it: 50 mg·kg-1 daily p.o. The source says:
Leigh Syndrome is a severe mitochondrial disease that occurs in about 1:40,000 newborns and is associated with retarded growth, muscular deficits including myopathy and dyspnea, lactic acidosis, and a characteristic progressive necrotizing encephalopathy of the vestibular nuclei, cerebellum, and olfactory bulb (Budde et al., 2002). Ndufs4 encodes a subunit of Complex I of the mitochondrial electron transport chain; mutations in the NDUFS4 gene cause LS in humans (Budde et al., 2000), and the Ndufs4 knockout mouse is a murine model of LS (Kruse et al., 2008). Ndufs4−/− mice have decreased Complex I levels and activity in multiple tissues and show severe and progressive symptoms of mitochondrial disease that mirror human LS. LS results in death at an average of […] in humans, and Ndufs4 KO mice show a similar early-life mortality with an average lifespan of just 60 days. Heterozygous Ndufs4 knockout mice on a C57Bl/6NIA background were bred to produce homozygous KO animals. Animals were fed ad libitum and housed at a constant ambient temperature in a 12-hour light cycle. Animal procedures were approved by the “Services Vétérinaires de la Prefecture de Police de Paris” Departmental Director and by the ethical committee of the Paris Descartes University.
At the age of 21 days, Ndufs4−/− mice were treated with the PI3KCA inhibitor, BYL719 (MedChem Express; 50 mg·kg-1 in 0.5% carboxymethylcellulose (Sigma Aldrich), daily p.o.) (n=9) or vehicle (0.5% carboxymethylcellulose (Sigma Aldrich), daily p.o.) (n=8).

Setting [3] is: primary MELAS patient and control fibroblast lines, FIG. 1A.

Bounds are passed on as bounds.

As to `Cc1nc(NC(=O)N2CCC[C@H]2C(N)=O)sc1-c1ccnc(C(C)(C)C(F)(F)F)c1` [BYL719, Alpelisib], the pS6 levels entry in experiment [1] (all cell lines (patients with mitochondrial disorders and controls), 48 hours, FIGS. 1A and 1B) is “reduced pS6 levels in all cell lines”. Also, the “S6 phosphorylation (phosphorylated ribosomal protein S6 vs total rpS6, GAPDH)” value was “inhibited S6 phosphorylation” in experiment [1] (other mitochondrial disorders and control fibroblast lines, FIG. 1B); “inhibited S6 phosphorylation” in experiment [1] (setting [3]). The “mitochondrial membrane potential (TMRE staining intensity) and morphology (fragmentation, depolarized mitochondria)” value in experiment [2] (MELAS fibroblasts, 48 hours, confocal microscopy, FIG. 1C) is “attenuated these phenotypes in all MELAS fibroblasts”. In experiment [2] (MELAS fibroblasts, flow cytometry, data not shown), the “membrane potential (TMRE) by flow cytometry” value is listed as “rescue”. For the same compound, in experiment [2] (control cells, 48 hours, confocal microscopy, FIG. 1C), the “mitochondrial membrane potential (TMRE staining intensity) and morphology” value is listed as “no overt impact”. In the experiment with Ndufs4−/− mice (Ndufs4−/− mice treated from age 21 days, vs vehicle, FIG. 2), the animal survival entry is “dramatically improved animal survival”. Moreover, in the experiment on Ndufs4−/− mice (Ndufs4−/− mice, 120 days later), the “appearance of treated animals” value is given as “overtly normal appearance”. In the experiment with Ndufs4−/− mice (Ndufs4−/− mice, all placebo-treated mice died within 80 days), this compound yielded a time alive not below 120 days.
For the compound cyclosporin A, in experiment [1] (setting [3]), the “S6 phosphorylation (phosphorylated ribosomal protein S6 vs total rpS6, GAPDH)” value was “no significant impact”.
